Reference: patent publication US8110660B2, “Soluble ENPP4 protein” (Ono Pharmaceutical Co., Ltd., priority 2004, dated 2012)
Blank lines part the entries; values can stand above or below the molecule they belong to.

Assays:
Type in all cases: biochemical
[1] = molecular target: T1, purified soluble type ENPP4 protein (Homo sapiens, UniProt Q9Y6X5); assay: Identification of nucleic acids to be ENPP4 substrate (HPLC); conditions: for degradation by ENPP4 (NMP detected as reacted product) / degradation amount / activity of degrading by ENPP4: 200 μM nucleic acid, HPLC, FIG. 15; for degradation by ENPP4 (NMP detected as reacted product): pH 8.5, 37° C., 2, 5 or 8 hours
T1 construct: signal peptide; base No. 1 to 45, mature protein; base No. 46 to 1212; made in house; host or cells: HEK293T (secreted into culture supernatant, His-Trap purified)
T1 sequence (Q9Y6X5 16-404): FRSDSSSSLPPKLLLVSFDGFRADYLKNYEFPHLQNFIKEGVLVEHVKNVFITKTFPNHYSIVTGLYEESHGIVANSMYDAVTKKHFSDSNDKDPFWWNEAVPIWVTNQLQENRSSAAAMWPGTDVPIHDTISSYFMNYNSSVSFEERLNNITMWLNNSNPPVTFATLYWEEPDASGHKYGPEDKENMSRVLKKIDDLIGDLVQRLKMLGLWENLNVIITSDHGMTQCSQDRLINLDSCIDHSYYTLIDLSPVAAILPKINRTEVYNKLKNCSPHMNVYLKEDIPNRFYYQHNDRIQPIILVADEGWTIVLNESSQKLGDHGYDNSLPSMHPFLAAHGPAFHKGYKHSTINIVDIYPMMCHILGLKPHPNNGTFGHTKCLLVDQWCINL
Method: (§1) 0.5 μg of the purified soluble type ENPP4 protein was mixed in 500 μL of assay buffer (20 mM HEPES, 140 mM NaCl, 5 mM KCl, 10 mM Glucose, pH 8.5), and then, each kind of nucleic acids were added thereto so that its final concentration became 200 μM. The mixture was kept at 37° C. for 2, 5, or 8 hours. Then, by using HPLC (Unison-UKC18 reversed-phase column 30×2 mm, manufactured by Imtakt Co., Ltd.) (mobile phase: 50 mM sodium phosphate buffer (pH 6.4), 5 mM tetrabutylammonium hydrogen sulfate, 1 mM EDTA, 2-30% acetonitrile), the nucleic acids were separated from the reacted solution, and the substrates and the reacted products were quantitatively determined.

[2] = molecular target: T1, purified soluble type ENPP4 protein; assay: Inhibition of pNP-TMP or pNP-PP degradation by soluble type ENPP4 protein
Method: 0.2 μg of the purified soluble type ENPP4 protein was mixed in 90 μL of assay buffer (20 mM HEPES, 140 mM NaCl, 5 mM KCl, 10 mM Glucose, pH 8.5), and 10 μL of each of 10 mM pNP-TMP or pNP-PP and a solution of a test compound was added thereto, and then was kept at 37° C. for 2 hours. Then, absorption of light of 405 nm was measured and thereby, the amount of p-nitorphenol was quantitatively determined and thereby the inhibitory activity of pNP-TMP or pNP-PP degradation of each test compound was examined. By using pNP-TMP and Neurotransmitter Library Plate 10 (Purinergic & adenosines) ver. […] Moreover, 60% or more of the inhibitory activity was detected in CDP-Choline, and 40% or more of the inhibitory activity was detected in P1P3-DiAdenosine-triphosphate (AP(3)A), P1P6-DiAdenosine-hexaphosphate (AP(6)A).

[3] = molecular target: T2, purified soluble type ENPP5 protein (Homo sapiens, UniProt Q9UJA9); assay: Inhibition of light-emitting substrate degradation by soluble type ENPP5 protein
T2 construct: signal peptide; base No. 1 to 66, mature protein; base No. 67 to 1287; made in house; host or cells: HEK293T (secreted into culture supernatant, His-Trap purified)
T2 sequence (Q9UJA9 23-429): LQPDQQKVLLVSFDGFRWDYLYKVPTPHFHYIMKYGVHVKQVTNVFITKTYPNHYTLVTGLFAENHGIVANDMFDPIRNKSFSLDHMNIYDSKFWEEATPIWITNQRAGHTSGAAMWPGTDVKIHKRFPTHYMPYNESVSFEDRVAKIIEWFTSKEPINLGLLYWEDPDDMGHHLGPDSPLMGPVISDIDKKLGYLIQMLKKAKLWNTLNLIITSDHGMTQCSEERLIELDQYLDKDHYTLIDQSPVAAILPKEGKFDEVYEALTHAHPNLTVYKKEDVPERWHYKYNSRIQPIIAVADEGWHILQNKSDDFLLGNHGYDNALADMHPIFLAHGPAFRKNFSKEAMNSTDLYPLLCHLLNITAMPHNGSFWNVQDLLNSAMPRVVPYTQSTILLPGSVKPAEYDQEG
Method: 0.2 μg of the purified soluble type ENPP5 protein was mixed in 90 μL of assay buffer (20 mM HEPES, 140 mM NaCl, 5 mM KCl, 10 mM Glucose, pH 7.5), and 10 μL of each of 10 mM pNP-PP and a solution of a test compound was added thereto, and then was kept at 37° C. for 2 hours. Then, absorption of light of 405 nm was measured and thereby, the amount of p-nitorphenol was quantitatively determined and thereby the inhibitory activity of […] pNP-PP degradation of each of the test compound was examined. By using Neurotransmitter Library Plate 10 (Purinergic & adenosines) ver. 2 (manufactured by BIOMOL Inc.) as test compounds, and the inhibitory activity of pNP-TMP degradation of each of 1 mM compounds was measured and, 70% or more of the inhibitory activity was detected in 2-Methyl-ATP, and 80% or more of the inhibitory activity was detected in ADP, UDP, and GDP.

[4] = molecular target: T3, purified soluble type ENPP6 protein (Homo sapiens, UniProt Q6UWR7); assay: Inhibition of light-emitting substrate degradation by soluble type ENPP6 protein
T3 construct: signal peptide; base No. 1 to 66, mature protein; base No. 67 to 1269; made in house; host or cells: HEK293T (secreted into culture supernatant, His-Trap purified)
T3 sequence (Q6UWR7 23-423): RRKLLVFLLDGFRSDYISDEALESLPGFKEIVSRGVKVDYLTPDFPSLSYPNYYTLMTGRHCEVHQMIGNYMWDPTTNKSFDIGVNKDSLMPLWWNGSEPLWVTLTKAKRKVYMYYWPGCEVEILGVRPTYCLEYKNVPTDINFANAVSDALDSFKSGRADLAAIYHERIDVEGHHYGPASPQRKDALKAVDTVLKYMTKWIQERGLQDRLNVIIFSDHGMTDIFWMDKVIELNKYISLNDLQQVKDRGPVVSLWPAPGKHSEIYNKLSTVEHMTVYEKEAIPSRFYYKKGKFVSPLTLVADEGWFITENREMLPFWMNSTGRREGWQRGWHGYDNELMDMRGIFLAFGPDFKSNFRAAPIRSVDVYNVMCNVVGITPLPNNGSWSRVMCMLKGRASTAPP
Method: 0.2 μg of the purified soluble type ENPP6 protein was mixed in 90 μL of assay buffer (20 mM HEPES, 140 mM NaCl, 5 mM KCl, 1 mM CaCl2, 1 mM MgCl2, 10 mM Glucose, pH 9.6), and 10 μL of each of 10 mM pNP-PP and a solution of a test compound was added thereto, and was kept at 37° C. for 2 hours. Then, absorption of light of 405 nm was measured and thereby, the amount of p-nitorphenol was quantitatively determined and thereby the inhibitory activity of […] degradation of each of the test compounds was examined. By using Neurotransmitter Library Plate 10 (Purinergic & adenosines) ver. 2, Bioactive Lipid Library ver. 3 (manufactured by BIOMOL Inc.), and various lysophospholipids as test compounds, the inhibitory activity of pNP-PP degradation was measured and, 80% or more of the inhibitory activity was detected in Glycerophosphorilcholine, and 70% or more of the inhibitory activity in Lysophosphatidylcholine, 1-Methyladenosine, 3-Deazaadenosine, ATP, and ADP(1 mM), and 60% or more of the inhibitory activity in N6-Methyladenosine, N6-Methyl-2′-deoxy-adenosine, S-Adenosyl-L-Homocysteine, and 2-MethylthioATP.

[5] = molecular target: T2, purified soluble type ENPP5 protein; assay: Identification of nucleic acids to be ENPP5 substrate (HPLC); conditions: 200 μM nucleic acid, pH 7.5, 37° C., 2, 5 or 8 hours, FIG. 15
Method: as §1, with “ENPP5” for “ENPP4”, “7.5),” for “8.5),”, “performed” for “kept”

degradation by ENPP4 (NMP detected as reacted product) [1]: degraded by ENPP4
Molecule: O=c1ccn([C@@H]2O[C@H](COP(=O)(O)OP(=O)(O)OP(=O)(O)O)[C@@H](O)[C@H]2O)c(=O)[nH]1 [UTP]

degradation by ENPP4 (NMP detected as reacted product) [1]: degraded by ENPP4
Molecule: Nc1ncnc2c1ncn2[C@@H]1O[C@H](COP(=O)(O)OP(=O)(O)OP(=O)(O)OC[C@H]2O[C@@H](n3cnc4c(N)ncnc43)[C@H](O)[C@@H]2O)[C@@H](O)[C@H]1O [AP(3)A, P1P3-DiAdenosine-triphosphate]

degradation by ENPP4 (NMP detected as reacted product) [1]: degraded by ENPP4
Molecule: Nc1ncnc2c1ncn2[C@@H]1O[C@H](COP(=O)(O)OP(=O)(O)OP(=O)(O)OP(=O)(O)OC[C@H]2O[C@@H](n3cnc4c(N)ncnc43)[C@H](O)[C@@H]2O)[C@@H](O)[C@H]1O [AP(4)A, P1P4-DiAdenosine-tetraphosphate]
degradation amount / activity of degrading by ENPP4 [1]: lower than the activity of degrading Ap(3)A

degradation by ENPP4 (NMP detected as reacted product) [1]: degraded by ENPP4
Molecule: Nc1ccn([C@@H]2O[C@H](COP(=O)(O)OP(=O)(O)OP(=O)(O)O)[C@@H](O)[C@H]2O)c(=O)n1 [CTP]

Molecule: diadenosine 5-phosphate [Ap(5)A]
degradation by ENPP4 (NMP detected as reacted product) [1]: degraded by ENPP4

degradation amount / activity of degrading by ENPP4 [1]: small
degradation by ENPP4 (NMP detected as reacted product) [1]: degraded by ENPP4
inhibitory activity against ENPP4 (concluded from small degradation and high inhibition) ([1]; conclusion from Examples 16 and 19): has an inhibitory activity against ENPP4
Molecule: Nc1ncnc2c1ncn2[C@@H]1O[C@H](COP(=O)(O)OP(=O)(O)OP(=O)(O)O)[C@@H](O)[C@H]1O [ATP]
concentration dependence of inhibitory activity against ENPP4 ([2]; FIG. 12, pNP-TMP degradation): inhibitory activity depending on concentration of ATP was detected
concentration dependence of inhibitory activity of pNP-PC degradation by ENPP5 ([3]; FIG. 13): inhibitory activity of pNP-PC degradation depending on concentration of ATP was detected

Molecule: Lysophosphatidylcholine
concentration dependence of inhibitory activity of pNP-TMP degradation by ENPP6 ([4]; FIG. 14): inhibitory activity of pNP-TMP degradation depending on concentration of LPC was detected

degradation by ENPP4 (NMP detected as reacted product) [1]: degraded by ENPP4
Molecule: Nc1ncnc2c1ncn2[C@@H]1O[C@H](COP(=O)(O)OP(=O)(O)OP(=O)(O)OP(=O)(O)OP(=O)(O)OP(=O)(O)OC[C@H]2O[C@@H](n3cnc4c(N)ncnc43)[C@H](O)[C@@H]2O)[C@@H](O)[C@H]1O [AP(6)A, P1P6-DiAdenosine-hexaphosphate]

inhibitory activity of pNP-PP degradation ([4]; pH 9.6, 37° C., 2 hours, 1 mM printed for ADP): ≥ 80%
Molecule: C[N+](C)(C)CCOP(=O)([O-])OC[C@H](O)CO [Glycerophosphorilcholine]

Molecule: Nc1ncnc2c1ncn2[C@@H]1O[C@H](COP(=O)(O)OP(=O)(O)O)[C@@H](O)[C@H]1O [ADP]
degradation by ENPP4 (NMP detected as reacted product) [1]: degraded by ENPP4
degradation by ENPP5 (NMP detected as reacted product) [5]: degraded by ENPP5

Molecule: C[N+](C)(C)CCOP(=O)(O)OP(=O)([O-])OC[C@H]1O[C@@H](n2ccc(N)nc2=O)[C@H](O)[C@@H]1O [CDP-Choline]
inhibition at 1000 µM ([2]; 1 mM compound, pH 8.5, 37° C., 2 hours, FIG. 11 (pNP-TMP), read-out: inhibitory activity of pNP-TMP or pNP-PP degradation): ≥ 60%
degradation by ENPP4 (NMP detected as reacted product) [1]: degraded by ENPP4
degradation by ENPP5 (NMP detected as reacted product) [5]: degraded by ENPP5

inhibitory activity of pNP-TMP degradation ([3]; 1 mM compound, pH 7.5, 37° C., 2 hours): ≥ 70%
Molecule: Cc1nc(N)c2ncn(C3OC(COP(=O)(O)OP(=O)(O)OP(=O)(O)O)C(O)C3O)c2n1 (centres unmarked) [2-Methyl-ATP]

degradation by ENPP4 (NMP detected as reacted product) [1]: degraded by ENPP4
degradation by ENPP5 (NMP detected as reacted product) [5]: degraded by ENPP5
Molecule: O=c1ccn([C@@H]2O[C@H](COP(=O)(O)OP(=O)(O)O)[C@@H](O)[C@H]2O)c(=O)[nH]1 [UDP]

degradation by ENPP4 (NMP detected as reacted product) [1]: degraded by ENPP4
Molecule: Nc1ccn([C@@H]2O[C@H](COP(=O)(O)OP(=O)(O)O)[C@@H](O)[C@H]2O)c(=O)n1 [CDP]
